Among the data in PubChem BioAssay AID270 (DTP/NCI, 2004) are T/C values, retold here.

Molecules are shown by their SMILES. Several values for one entry are separate records, joined by “and”; a condition that tells them apart may be missing. Identical values can stand only once. Records with an inconclusive call do not appear. *1 amine or outer side, *2 acyl side, *3 side chain or, on linkers, in order; H or OH if unused. Where a SMILES comes first, the peptide text is derived from it. Bridges are numbered along the chain shown (N, C = ends). Roman numbers before positions name the chains, in order. [ ]: non-standard residue; d: D form. Actinocin(1to9) = Cc1c2oc3c(C)ccc(C(=O)[*:2])c3nc-2c(C(=O)[*:1])c(N)c1=O; NMeV = CN[CH](C(=O)O)C(C)C; Sar = CNCC(=O)O

The assay concerns BDF1 mice, s.c. Lewis lung carcinoma, T/C %. The experiment in a line: NCI In Vivo Anticancer Drug Screen. Data for tumor model Lewis Lung Carcinoma (subcutaneous) in B6D2F1 (BDF1) mice. In a few lines: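 First, mice carry a transplantable tumor. Next, groups receive either compound or vehicle. Finally, survival or tumor dimensions in the dosed animals are divided by the corresponding control figure.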

The mark [1] stands for this setting: endpoint: mean tumor weight, dose: 100.0 mg/kg/injection, schedule: Q01DX011 (ip), vehicle: saline, higher = larger tumour.

For the molecule `O=C(Nc1ccc(C2=NCCN2)cc1)c1cc(Cl)cc(C(=O)Nc2ccc(C3=NCCN3)cc2)c1`, the T/C is, setting by setting: under setting [1], 93 % of control; (endpoint: mean tumor weight, dose: 200.0 mg/kg/injection, schedule: Q01DX011 (ip), vehicle: saline, higher = larger tumour) 66 % of control; (endpoint: mean tumor weight, dose: 400.0 mg/kg/injection, schedule: Q01DX011 (ip), vehicle: saline, higher = larger tumour) 51 % of control; (endpoint: mean tumor weight, dose: 800.0 mg/kg/injection, schedule: Q01DX011 (ip), vehicle: saline, higher = larger tumour) 21 % of control.
On to `CN(C)C=Nc1ccc2c3c(cccc13)CC2`, for which the T/C runs as follows: (endpoint: median survival time, dose: 6.25 mg/kg/injection, schedule: Q01DX009 (ip), vehicle: Klucel (hydroxypropylcellulose) (HPC), higher = longer survival) 108 % of control; (endpoint: median survival time, dose: 12.5 mg/kg/injection, schedule: Q01DX009 (ip), vehicle: Klucel (hydroxypropylcellulose) (HPC), higher = longer survival) 107 % of control; (endpoint: median survival time, dose: 25.0 mg/kg/injection, schedule: Q01DX009 (ip), vehicle: Klucel (hydroxypropylcellulose) (HPC), higher = longer survival) 122 % of control.
`CN(C1=NS(=O)(=O)N=C(N(C)c2ccccc2)O1)c1ccccc1`: the T/C was 111 % of control (endpoint: median survival time, dose: 14.37 mg/kg/injection, schedule: Q01DX009 (ip), vehicle: Klucel (hydroxypropylcellulose) (HPC), higher = longer survival); 104 % of control (endpoint: median survival time, dose: 28.75 mg/kg/injection, schedule: Q01DX009 (ip), vehicle: Klucel (hydroxypropylcellulose) (HPC), higher = longer survival); 103 % of control (endpoint: median survival time, dose: 57.5 mg/kg/injection, schedule: Q01DX009 (ip), vehicle: Klucel (hydroxypropylcellulose) (HPC), higher = longer survival); 100 % of control (endpoint: median survival time, dose: 115.0 mg/kg/injection, schedule: Q01DX009 (ip), vehicle: Klucel (hydroxypropylcellulose) (HPC), higher = longer survival); 96 % of control (endpoint: median survival time, dose: 230.0 mg/kg/injection, schedule: Q01DX009 (ip), vehicle: Klucel (hydroxypropylcellulose) (HPC), higher = longer survival).
Regarding `C/C(=C\c1ccc(C)cc1)[N+](=O)[O-]`, the T/C is, setting by setting: (endpoint: median survival time, dose: 25.0 mg/kg/injection, schedule: Q01DX009 (ip), vehicle: saline with Tween-80, higher = longer survival) 96 % of control; (endpoint: median survival time, dose: 50.0 mg/kg/injection, schedule: Q01DX009 (ip), vehicle: saline with Tween-80, higher = longer survival) 95 % of control; (endpoint: median survival time, dose: 100.0 mg/kg/injection, schedule: Q01DX009 (ip), vehicle: saline with Tween-80, higher = longer survival) 94 % of control.
Take `C=C1CC/C=C(\C)CCC2C1CC2(C)C` (centres undefined): the T/C runs as follows: (endpoint: mean tumor weight, dose: 25.0 mg/kg/injection, schedule: Q01DX011 (ip), vehicle: saline, higher = larger tumour) 94 % of control; (endpoint: mean tumor weight, dose: 50.0 mg/kg/injection, schedule: Q01DX011 (ip), vehicle: saline, higher = larger tumour) 88 % of control; under setting [1], 45 % of control.
On to `CC(=O)Oc1ccc(OC(C)=O)c2c1C(=O)C=CC2=O`, for which the T/C is, setting by setting: (endpoint: median survival time, dose: 0.38 mg/kg/injection, schedule: Q01DX009 (ip), vehicle: Klucel (hydroxypropylcellulose) (HPC), higher = longer survival) 107 % of control; (endpoint: median survival time, dose: 0.75 mg/kg/injection, schedule: Q01DX009 (ip), vehicle: Klucel (hydroxypropylcellulose) (HPC), higher = longer survival) 96 % of control; (endpoint: median survival time, dose: 1.5 mg/kg/injection, schedule: Q01DX009 (ip), vehicle: Klucel (hydroxypropylcellulose) (HPC), higher = longer survival) 100 % of control; (endpoint: median survival time, dose: 3.0 mg/kg/injection, schedule: Q01DX009 (ip), vehicle: Klucel (hydroxypropylcellulose) (HPC), higher = longer survival) 113 % of control; (endpoint: median survival time, dose: 3.12 mg/kg/injection, schedule: Q01DX009 (ip), vehicle: Klucel (hydroxypropylcellulose) (HPC), higher = longer survival) 111 % of control.
As to `CCCCCCCCCCCCCCCCC(C(=O)O)C(O)(CC(=O)O)C(=O)O` (centres undefined), the T/C (endpoint: mean tumor weight, dose: 22.0 mg/kg/injection, schedule: Q01DX011 (ip), vehicle: carboxymethylcellulose (CMC), higher = larger tumour) was 64 % of control; the T/C (endpoint: mean tumor weight, dose: 35.0 mg/kg/injection, schedule: Q01DX011 (ip), vehicle: carboxymethylcellulose (CMC), higher = larger tumour) is 68 % of control; the T/C (endpoint: mean tumor weight, dose: 50.0 mg/kg/injection, schedule: Q01DX011 (ip), vehicle: carboxymethylcellulose (CMC), higher = larger tumour) is 46 % of control.
Turning to `NNc1nncc2ccccc12`, the T/C (endpoint: mean tumor weight, dose: 13.0 mg/kg/injection, schedule: Q01DX011 (ip), vehicle: carboxymethylcellulose (CMC), higher = larger tumour) was 111 % of control; the T/C (endpoint: mean tumor weight, dose: 20.0 mg/kg/injection, schedule: Q01DX011 (ip), vehicle: carboxymethylcellulose (CMC), higher = larger tumour) is 87 % of control; the T/C (endpoint: mean tumor weight, dose: 30.0 mg/kg/injection, schedule: Q01DX011 (ip), vehicle: carboxymethylcellulose (CMC), higher = larger tumour) is 110 % of control.
On to `C/C=C(\C)C(=O)N/N=C\c1cc(Cl)cc(Cl)c1O`, for which the T/C was 102 % of control (endpoint: median survival time, dose: 12.5 mg/kg/injection, schedule: Q01DX009 (ip), vehicle: olive oil, sesame oil, peanut oil, higher = longer survival); 112 % of control (endpoint: median survival time, dose: 25.0 mg/kg/injection, schedule: Q01DX009 (ip), vehicle: olive oil, sesame oil, peanut oil, higher = longer survival); 90 % of control (endpoint: median survival time, dose: 50.0 mg/kg/injection, schedule: Q01DX009 (ip), vehicle: olive oil, sesame oil, peanut oil, higher = longer survival); 86 % of control (endpoint: median survival time, dose: 200.0 mg/kg/injection, schedule: Q01DX009 (ip), vehicle: olive oil, sesame oil, peanut oil, higher = longer survival).
As to `O=C1CN=C(c2ccc[nH]2)c2cc(Cl)ccc2N1`, the T/C (endpoint: mean tumor weight, dose: 40.0 mg/kg/injection, schedule: Q01DX011 (ip), vehicle: other, higher = larger tumour) was 112 % of control; the T/C (endpoint: mean tumor weight, dose: 120.0 mg/kg/injection, schedule: Q01DX011 (ip), vehicle: other, higher = larger tumour) was 73 % of control and 90 % of control.
As for `CCC(C)C1NC(=O)C(NC(=O)c2c3nc4c(C(=O)NC5C(=O)NC(C(C)C)C(=O)N6CCCC6C(=O)N(C)CC(=O)N(C)C(C(C)C)C(=O)OC5C)ccc(C)c4oc-3c(C)c(=O)c2N)C(C)OC(=O)C(C(C)C)N(C)C(=O)CN(C)C(=O)C2CCCN2C1=O` (centres undefined) (I: TIP[Sar][NMeV] / II: TVP[Sar][NMeV]; ester I:1-I:C, II:1-II:C; linker I:N-II:N via Actinocin(1to9); configuration not given here), the T/C runs as follows: (endpoint: median survival time, dose: 12.5 micrograms/kg/injection, schedule: Q01DX009 (ip), vehicle: water, higher = longer survival) 111 % of control; (endpoint: median survival time, dose: 25.0 micrograms/kg/injection, schedule: Q01DX009 (ip), vehicle: water, higher = longer survival) 112 % of control; (endpoint: median survival time, dose: 50.0 micrograms/kg/injection, schedule: Q01DX009 (ip), vehicle: water, higher = longer survival) 112 % of control; (endpoint: median survival time, dose: 75.0 micrograms/kg/injection, schedule: Q04DX003 (ip), vehicle: water, higher = longer survival) 100 % of control; (endpoint: median survival time, dose: 150.0 micrograms/kg/injection, schedule: Q04DX003 (ip), vehicle: water, higher = longer survival) 108 % of control; (endpoint: median survival time, dose: 300.0 micrograms/kg/injection, schedule: Q04DX003 (ip), vehicle: water, higher = longer survival) 154 % of control.
Take `c1ccc(CSc2ncnc3nc[nH]c23)nc1`: the T/C (endpoint: mean tumor weight, dose: 25.0 mg/kg/injection, schedule: Q01DX011 (ip), vehicle: other, higher = larger tumour) is 59 % of control; the T/C (endpoint: mean tumor weight, dose: 50.0 mg/kg/injection, schedule: Q01DX011 (ip), vehicle: other, higher = larger tumour) was 109 % of control; the T/C (endpoint: mean tumor weight, dose: 100.0 mg/kg/injection, schedule: Q01DX011 (ip), vehicle: other, higher = larger tumour) is 63 % of control.
